Where a name gives a salt, the structure may show the parent alone. Read-outs that look alike come from different tables or passages of the source.
Columns and labels:
Type in all cases: cell-based, human
[1] = tested on: senescent IMR90 ER:RAS cells (4-OHT-induced); assay: Nuclei count (Hoechst, high content imaging) senolytic assay, oncogene-induced senescence (OIS) model, senescent cells; settings: Homo sapiens
In short: (§1)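 Senolytic read-out as total nuclei per well by automated Hoechst imaging after 72 h compound exposure (10 μM to 10 nM, 10-point […], triplicate), relative to untreated controls. Paired cultures: IMR90 ER:RAS kept non-senescent or made senescent with 100 nM final 4-OHT; ouabain served as positive control.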

[2] = tested on: non-senescent control A549 cells; assay: Nuclei count senolytic assay, TIS model, non-senescent control cells; settings: Homo sapiens, A549, Control cells, mean, read-out: Mean % Cell Survival; for viability at 10 µM: log (dose) [M] -5; for viability at 4.68 µM: log (dose) [M] -5.33; for viability at 2.19 µM: log (dose) [M] -5.66; for viability at 1 µM: log (dose) [M] -6; for viability at 0.468 µM: log (dose) [M] -6.33; for viability at 0.219 µM: log (dose) [M] -6.66; for viability at 0.1 µM: log (dose) [M] -7; for viability at 0.0468 µM: log (dose) [M] -7.33; for viability at 0.0219 µM: log (dose) [M] -7.66; for viability at 0.01 µM: log (dose) [M] -8
In short: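 Nuclei counted by Hoechst 33342 imaging after fixation, following 72 h treatment with compound at 10 nM–10 μM (10-point […], triplicates). Targets were control A549 cells and A549 rendered senescent by 48 h 100 μM etoposide plus 3 days recovery.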

[3] = tested on: non-senescent control IMR90 ER:RAS cells; assay: Nuclei count (Hoechst, high content imaging) senolytic assay, OIS model, non-senescent control cells; settings: Homo sapiens; for viability at 2.188 µM: log (dose) [M] -5.66, 72 h; for viability at 0.4677 µM: log (dose) [M] -6.33, 72 h; for viability at 2.19 µM: log (dose) [M] -5.66; for viability at 0.468 µM: log (dose) [M] -6.33
In short: as §1

[4] = IMR-90, 72 h, Senescent, log (dose) [M] -5, 72 h, mean n=3 (Fig 3C), read-out: Mean % Cell Survival
[5] = IMR-90, 72 h, Senescent, log (dose) [M] -5.33, 72 h, mean n=3 (Fig 3C), read-out: Mean % Cell Survival
[6] = IMR-90, 72 h, Senescent, log (dose) [M] -5.66, 72 h, mean n=3 (Fig 3C), read-out: Mean % Cell Survival
[7] = IMR-90, 72 h, Senescent, log (dose) [M] -6, 72 h, mean n=3 (Fig 3C), read-out: Mean % Cell Survival
[8] = IMR-90, 72 h, Senescent, log (dose) [M] -6.33, 72 h, mean n=3 (Fig 3C), read-out: Mean % Cell Survival
[9] = IMR-90, 72 h, Senescent, log (dose) [M] -6.66, 72 h, mean n=3 (Fig 3C), read-out: Mean % Cell Survival
[10] = IMR-90, 72 h, Senescent, log (dose) [M] -7, 72 h, mean n=3 (Fig 3C), read-out: Mean % Cell Survival
[11] = IMR-90, 72 h, Senescent, log (dose) [M] -7.33, 72 h, mean n=3 (Fig 3C), read-out: Mean % Cell Survival
[12] = IMR-90, 72 h, Senescent, log (dose) [M] -7.66, 72 h, mean n=3 (Fig 3C), read-out: Mean % Cell Survival
[13] = IMR-90, 72 h, Senescent, log (dose) [M] -8, 72 h, mean n=3 (Fig 3C), read-out: Mean % Cell Survival
[14] = IMR-90, 72 h, Control, log (dose) [M] -5, 72 h, mean n=3 (Fig 3C), read-out: Mean % Cell Survival
[15] = IMR-90, 72 h, Control, log (dose) [M] -5.33, 72 h, mean n=3 (Fig 3C), read-out: Mean % Cell Survival
[16] = IMR-90, 72 h, Control, mean n=3 (Fig 3C), read-out: Mean % Cell Survival
[17] = IMR-90, 72 h, Control, log (dose) [M] -6, 72 h, mean n=3 (Fig 3C), read-out: Mean % Cell Survival
[18] = IMR-90, 72 h, Control, log (dose) [M] -6.66, 72 h, mean n=3 (Fig 3C), read-out: Mean % Cell Survival
[19] = IMR-90, 72 h, Control, log (dose) [M] -7, 72 h, mean n=3 (Fig 3C), read-out: Mean % Cell Survival
[20] = IMR-90, 72 h, Control, log (dose) [M] -7.33, 72 h, mean n=3 (Fig 3C), read-out: Mean % Cell Survival
[21] = IMR-90, 72 h, Control, log (dose) [M] -7.66, 72 h, mean n=3 (Fig 3C), read-out: Mean % Cell Survival
[22] = IMR-90, 72 h, Control, log (dose) [M] -8, 72 h, mean n=3 (Fig 3C), read-out: Mean % Cell Survival
[23] = IMR-90, Control cells, log (dose) [M] -7.33, individual replicates, SUP FIG 4C, read-out: % Cell Survival
[24] = IMR-90, Control cells, log (dose) [M] -8, individual replicates, SUP FIG 4C, read-out: % Cell Survival
[25] = IMR-90, Control, log (dose) [M] -5.33, read-out: % Cell Survival
[26] = IMR-90, Control, read-out: % Cell Survival

CC[C@]1(O)C[C@@H]2CN(CCc3c([nH]c4ccccc34)[C@@](C(=O)OC)(c3cc4c(cc3OC)N(C)[C@H]3[C@@](O)(C(=O)OC)[C@H](OC(C)=O)[C@]5(CC)C=CCN6CC[C@]43[C@@H]65)C2)C1 [Vinblastine sulfate, vinblastine sulfate, reference compound]
viability at 10 µM [1, 4]: 54.4%
viability at 4.677 µM [1, 5]: 77.2%
viability at 2.188 µM [1, 6]: 58.1%
viability at 1 µM [1, 7]: 67.1%
viability at 0.4677 µM [1, 8]: 61.7%
viability at 0.2188 µM [1, 9]: 87%
viability at 0.1 µM [1, 10]: 73.9%
viability at 0.04677 µM [1, 11]: 108%
viability at 0.02188 µM [1, 12]: 59.7%
viability at 0.01 µM [1, 13]: 92.6%
viability at 1 µM ([1]; IMR-90, Senescent cells, log (dose) [M] -6, individual replicates, SUP FIG 4C, read-out: % Cell Survival): 70.9%
viability at 10 µM ([1]; IMR-90, Senescent, log (dose) [M] -5, read-out: % Cell Survival): 89.1%
viability at 4.677 µM ([1]; IMR-90, Senescent, log (dose) [M] -5.33, read-out: % Cell Survival): 88%
viability at 2.188 µM ([1]; IMR-90, Senescent, log (dose) [M] -5.66, read-out: % Cell Survival): 86.9%
viability at 1 µM ([1]; IMR-90, Senescent, log (dose) [M] -6, read-out: % Cell Survival): 68.2%
viability at 0.4677 µM ([1]; IMR-90, Senescent, log (dose) [M] -6.33, read-out: % Cell Survival): 96.2%
viability at 0.2188 µM ([1]; IMR-90, Senescent, log (dose) [M] -6.66, read-out: % Cell Survival): 103%
viability at 0.1 µM ([1]; IMR-90, Senescent, log (dose) [M] -7, read-out: % Cell Survival): 109%
viability at 0.04677 µM ([1]; IMR-90, Senescent, log (dose) [M] -7.33, read-out: % Cell Survival): 92.4%
viability at 0.02188 µM ([1]; IMR-90, Senescent, log (dose) [M] -7.66, read-out: % Cell Survival): 112%
viability at 0.01 µM ([1]; IMR-90, Senescent, log (dose) [M] -8, read-out: % Cell Survival): 114%
viability at 10 µM [2]: 47.4%
viability at 4.68 µM [2]: 46.3%
viability at 2.19 µM [2]: 48.5%
viability at 1 µM [2]: 47%
viability at 0.468 µM [2]: 45.9%
viability at 0.219 µM [2]: 49.9%
viability at 0.1 µM [2]: 52.9%
viability at 0.0468 µM [2]: 66.7%
viability at 0.0219 µM [2]: 69.2%
viability at 0.01 µM [2]: 78.7%
viability at 10 µM [3, 14]: 51.7%
viability at 4.677 µM [3, 15]: 55.1%
viability at 2.188 µM [3, 16]: 57.9%
viability at 1 µM [3, 17]: 76.4%
viability at 0.4677 µM [3, 16]: 76.9%
viability at 0.2188 µM [3, 18]: 80.8%
viability at 0.1 µM [3, 19]: 104%
viability at 0.04677 µM [3, 20]: 112%
viability at 0.02188 µM [3, 21]: 104%
viability at 0.01 µM [3, 22]: 105%
viability at 0.04677 µM [3, 23]: 114%
viability at 0.01 µM [3, 24]: 102%
viability at 10 µM ([3]; IMR-90, Control, log (dose) [M] -5, read-out: % Cell Survival): 46.8%
viability at 4.68 µM [3, 25]: 42.3%
viability at 2.19 µM [3, 26]: 47.6%
viability at 1 µM ([3]; IMR-90, Control, log (dose) [M] -6, read-out: % Cell Survival): 41.3%
viability at 0.468 µM [3, 26]: 41.5%

CO[C@H]1C[C@@H]2CC[C@@H](C)[C@@](O)(O2)C(=O)C(=O)N2CCCC[C@H]2C(=O)O[C@H]([C@H](C)C[C@@H]2CC[C@H](n3cnnn3)[C@H](OC)C2)CC(=O)[C@H](C)/C=C(\C)[C@@H](O)[C@@H](OC)C(=O)[C@H](C)C[C@H](C)/C=C/C=C/C=C/1C [Zotarolimus, zotarolimus, reference compound]
viability at 10 µM [1, 4]: 111%
viability at 4.677 µM [1, 5]: 115%
viability at 2.188 µM [1, 6]: 102%
viability at 1 µM [1, 7]: 113%
viability at 0.4677 µM [1, 8]: 95.4%
viability at 0.2188 µM [1, 9]: 95.9%
viability at 0.1 µM [1, 10]: 88.4%
viability at 0.04677 µM [1, 11]: 106%
viability at 0.02188 µM [1, 12]: 116%
viability at 0.01 µM [1, 13]: 104%
viability at 10 µM [2]: 84.8%
viability at 4.68 µM [2]: 92.5%
viability at 2.19 µM [2]: 84.4%
viability at 1 µM [2]: 76.7%
viability at 0.468 µM [2]: 92.9%
viability at 0.219 µM [2]: 91%
viability at 0.1 µM [2]: 95.4%
viability at 0.0468 µM [2]: 98.8%
viability at 0.0219 µM [2]: 96.8%
viability at 0.01 µM [2]: 109%
viability at 10 µM [3, 14]: 94.7%
viability at 4.677 µM [3, 15]: 101%
viability at 2.188 µM [3, 16]: 84.8%
viability at 1 µM [3, 17]: 104%
viability at 0.4677 µM [3, 16]: 108%
viability at 0.2188 µM [3, 18]: 99.6%
viability at 0.1 µM [3, 19]: 95.5%
viability at 0.04677 µM [3, 20]: 105%
viability at 0.02188 µM [3, 21]: 110%
viability at 0.01 µM [3, 22]: 98.2%
viability at 4.677 µM ([3]; IMR-90, Control cells, log (dose) [M] -5.33, individual replicates, SUP FIG 4C, read-out: % Cell Survival): 107%
viability at 1 µM ([3]; IMR-90, Control cells, log (dose) [M] -6, individual replicates, SUP FIG 4C, read-out: % Cell Survival): 109%
viability at 0.2188 µM ([3]; IMR-90, Control cells, log (dose) [M] -6.66, individual replicates, SUP FIG 4C, read-out: % Cell Survival): 99.3%
viability at 0.1 µM ([3]; IMR-90, Control cells, log (dose) [M] -7, individual replicates, SUP FIG 4C, read-out: % Cell Survival): 91%
viability at 0.04677 µM [3, 23]: 102%
viability at 0.02188 µM ([3]; IMR-90, Control cells, log (dose) [M] -7.66, individual replicates, SUP FIG 4C, read-out: % Cell Survival): 111%
viability at 0.01 µM [3, 24]: 93.6%
viability at 4.68 µM [3, 25]: 92.8%
viability at 2.19 µM [3, 26]: 83.4%
viability at 0.468 µM [3, 26]: 93.7%
viability at 0.219 µM ([3]; IMR-90, Control, log (dose) [M] -6.66, read-out: % Cell Survival): 88.1%
viability at 0.1 µM ([3]; IMR-90, Control, log (dose) [M] -7, read-out: % Cell Survival): 98.7%
viability at 0.04677 µM ([3]; IMR-90, Control, log (dose) [M] -7.33, read-out: % Cell Survival): 99.6%
viability at 0.0219 µM ([3]; IMR-90, Control, log (dose) [M] -7.66, read-out: % Cell Survival): 85.6%
viability at 0.01 µM ([3]; IMR-90, Control, log (dose) [M] -8, read-out: % Cell Survival): 99.5%

From paper PMC10257182, “Discovery of senolytics using machine learning” (Nature Communications, 2023)
